In ChEMBL document CHEMBL4364313, “Synthesis of new 5,6,7,8-tetrahydropyrido[1,2-c]pyrimidine derivatives with rigidized tryptamine moiety as potential SSRI and 5-HT1A receptor ligands” (Eur J Med Chem, 2019):
Blank lines part the entries; values can stand above or below the compound they belong to. Activity calls are given as the source filed them. No cut-off for these calls is given here.

Key:
[1] = target: Serotonin transporter (SERT); experiment: biochemical
[2] = Half life in human liver microsomes at 1 uM measured for 5 to 60 mins under shaking condition in presence of NADPH by LCMS analysis; assay type: ADME, Microsome
[3] = target: 5-hydroxytryptamine receptor 2A (Homo sapiens, UniProt P28223); experiment: Displacement of [3H]ketanserin from human 5HT2A receptor expressed in HEK293 cells incubated for 1.5 hrs by Cheng-Prusoff analysis based microbeta scintillation counting method; assay type: cell-based
Chain of 5-hydroxytryptamine receptor 2A (P28223 whole entry): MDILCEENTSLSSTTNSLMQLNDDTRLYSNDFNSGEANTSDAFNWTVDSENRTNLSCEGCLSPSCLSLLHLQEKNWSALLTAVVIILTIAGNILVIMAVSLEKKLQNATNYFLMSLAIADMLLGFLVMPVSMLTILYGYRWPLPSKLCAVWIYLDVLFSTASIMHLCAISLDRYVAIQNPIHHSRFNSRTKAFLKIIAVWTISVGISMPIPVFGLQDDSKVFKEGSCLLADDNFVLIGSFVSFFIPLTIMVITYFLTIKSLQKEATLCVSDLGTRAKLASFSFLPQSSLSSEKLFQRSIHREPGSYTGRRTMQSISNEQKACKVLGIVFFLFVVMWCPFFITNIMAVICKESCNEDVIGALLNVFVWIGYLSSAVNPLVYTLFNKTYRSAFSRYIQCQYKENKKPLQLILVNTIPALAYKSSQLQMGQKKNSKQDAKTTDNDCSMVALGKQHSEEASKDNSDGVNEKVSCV

[4] = target: 5-hydroxytryptamine receptor 6 (Homo sapiens, UniProt P50406); experiment: biochemical
Chain of 5-hydroxytryptamine receptor 6 (P50406 whole entry): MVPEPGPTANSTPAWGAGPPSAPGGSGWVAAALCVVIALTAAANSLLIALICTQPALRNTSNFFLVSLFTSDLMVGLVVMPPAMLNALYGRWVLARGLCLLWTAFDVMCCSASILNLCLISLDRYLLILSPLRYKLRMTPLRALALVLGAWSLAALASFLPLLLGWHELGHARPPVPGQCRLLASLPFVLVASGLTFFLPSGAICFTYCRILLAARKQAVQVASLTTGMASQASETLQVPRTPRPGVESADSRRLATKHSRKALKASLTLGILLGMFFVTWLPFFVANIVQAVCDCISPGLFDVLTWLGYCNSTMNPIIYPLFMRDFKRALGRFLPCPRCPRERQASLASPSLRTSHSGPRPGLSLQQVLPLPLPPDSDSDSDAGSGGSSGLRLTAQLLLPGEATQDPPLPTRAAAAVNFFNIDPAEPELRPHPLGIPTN
Description: Displacement of [3H]LSD from human 5-HT6 receptor expressed in HEK cells incubated for 1 hr by Cheng-Prusoff analysis based microbeta scintillation counting method

[5] = target: 5-hydroxytryptamine receptor 7 (Homo sapiens, UniProt P34969); experiment: biochemical
Chain of 5-hydroxytryptamine receptor 7 (P34969 whole entry): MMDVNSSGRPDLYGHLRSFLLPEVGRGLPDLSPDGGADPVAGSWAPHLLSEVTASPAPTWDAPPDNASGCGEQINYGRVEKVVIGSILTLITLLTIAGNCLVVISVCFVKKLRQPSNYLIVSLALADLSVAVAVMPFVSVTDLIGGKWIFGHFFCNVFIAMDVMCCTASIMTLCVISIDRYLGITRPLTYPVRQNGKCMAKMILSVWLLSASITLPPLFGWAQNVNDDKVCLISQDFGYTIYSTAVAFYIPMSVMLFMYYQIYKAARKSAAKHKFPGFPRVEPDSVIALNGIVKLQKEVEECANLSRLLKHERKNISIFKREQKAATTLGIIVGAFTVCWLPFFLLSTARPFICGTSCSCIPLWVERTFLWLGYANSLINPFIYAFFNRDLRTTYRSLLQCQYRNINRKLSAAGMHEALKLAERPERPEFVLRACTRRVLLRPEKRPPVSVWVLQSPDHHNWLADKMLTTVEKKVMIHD
Description: Displacement of [3H]-5-CT from human 5HT7 receptor expressed in HEK cells incubated for 1 hr by Cheng-Prusoff analysis based microbeta scintillation counting method

[6] = target: D(2) dopamine receptor (Homo sapiens, UniProt P14416); experiment: biochemical
Chain of D(2) dopamine receptor (P14416 whole entry): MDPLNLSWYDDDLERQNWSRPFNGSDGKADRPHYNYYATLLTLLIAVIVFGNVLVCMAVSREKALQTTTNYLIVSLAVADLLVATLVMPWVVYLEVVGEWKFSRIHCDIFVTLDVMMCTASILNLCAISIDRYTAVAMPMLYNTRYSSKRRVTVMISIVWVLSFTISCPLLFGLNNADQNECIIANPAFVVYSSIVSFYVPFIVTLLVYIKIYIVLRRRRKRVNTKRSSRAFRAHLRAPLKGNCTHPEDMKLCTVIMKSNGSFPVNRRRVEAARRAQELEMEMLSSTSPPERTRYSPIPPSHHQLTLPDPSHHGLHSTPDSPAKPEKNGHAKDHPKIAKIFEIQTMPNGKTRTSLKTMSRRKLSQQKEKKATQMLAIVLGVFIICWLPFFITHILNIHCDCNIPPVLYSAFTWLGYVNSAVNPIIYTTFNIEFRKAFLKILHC
Description: Displacement of [3H]-raclopride from human D2 receptor expressed in HEK cells incubated for 1 hr by Cheng-Prusoff analysis based microbeta scintillation counting method

[7] = system: Mus musculus; experiment: Induction of hypothermia in CD-1 mouse assessed as change in body temperature at 5 mg/kg, ip treated for 30 mins and measured after 30 mins by thermometric method; assay type: functional, organism-based
[8] = system: Mus musculus; experiment: Induction of hypothermia in CD-1 mouse assessed as change in body temperature at 5 mg/kg, ip treated for 60 mins and measured after 30 mins by thermometric method; assay type: functional, organism-based
[9] = system: Mus musculus; experiment: Induction of hypothermia in CD-1 mouse assessed as change in body temperature at 5 mg/kg, ip treated for 90 mins and measured after 30 mins by thermometric method; assay type: functional, organism-based
[10] = system: Mus musculus; experiment: Induction of hypothermia in CD-1 mouse assessed as change in body temperature at 5 mg/kg, ip treated for 120 mins and measured after 30 mins by thermometric method; assay type: functional, organism-based
[11] = system: Mus musculus; experiment: Induction of hypothermia in CD-1 mouse assessed as change in body temperature at 20 mg/kg, ip treated for 30 mins and measured after 30 mins by thermometric method; assay type: functional, organism-based
[12] = system: Mus musculus; experiment: Induction of hypothermia in CD-1 mouse assessed as change in body temperature at 20 mg/kg, ip treated for 60 mins and measured after 30 mins by thermometric method; assay type: functional, organism-based
[13] = system: Mus musculus; experiment: Induction of hypothermia in CD-1 mouse assessed as change in body temperature at 20 mg/kg, ip treated for 90 mins and measured after 30 mins by thermometric method; assay type: functional, organism-based
[14] = system: Mus musculus; experiment: Induction of hypothermia in CD-1 mouse assessed as change in body temperature at 20 mg/kg, ip treated for 120 mins and measured after 30 mins by thermometric method; assay type: functional, organism-based
[15] = system: Mus musculus; experiment: Inhibition of 8-OH-DPAT-induced hypothermia in CD-1 mouse assessed change in body temperature at 20 mg/kg, ip pretreated for 45 mins followed by 8-OH-DPAT addition and measured after 15 mins by thermometric method; assay type: functional, organism-based
[16] = system: Mus musculus; experiment: Inhibition of 8-OH-DPAT-induced hypothermia in CD-1 mouse assessed change in body temperature at 20 mg/kg, ip pretreated for 45 mins followed by 8-OH-DPAT addition and measured after 30 mins by thermometric method; assay type: functional, organism-based
[17] = system: Mus musculus; experiment: Inhibition of 8-OH-DPAT-induced hypothermia in CD-1 mouse assessed change in body temperature at 20 mg/kg, ip pretreated for 45 mins followed by 8-OH-DPAT addition and measured after 45 mins by thermometric method; assay type: functional, organism-based
[18] = system: Mus musculus; experiment: Inhibition of 8-OH-DPAT-induced hypothermia in CD-1 mouse assessed change in body temperature at 20 mg/kg, ip pretreated for 45 mins followed by 8-OH-DPAT addition and measured after 60 mins by thermometric method; assay type: functional, organism-based
[19] = species on record: Mus musculus; experiment: Effect on forepaw treading in CD-1 mouse up to 30 mins in presence of 8-OH-DPAT; assay type: functional, organism-based
[20] = species on record: Mus musculus; experiment: Effect on forepaw treading in CD-1 mouse; assay type: ADME, organism-based; conditions: in vivo
[21] = system: Mus musculus; experiment: Psychoactive effect in CD-1 mouse assessed as effect on immobility time at 5 to 20 mg/kg, ip pretreated for 30 mins and measured after 6 mins by force swim test; assay type: ADME, organism-based; conditions: in vivo, 0.1 h
[22] = species on record: Mus musculus; experiment: Effect on forepaw treading in CD-1 mouse in presence of 8-OH-DPAT; assay type: functional, organism-based

Structure (SMILES): O=C1CC2(CCCC2)CC(=O)N1CCCCN1CCN(c2ncccn2)CC1 [BUSPIRONE]
half-life at 1 µM [2]: 6.6 min

Structure (SMILES): COc1ccc(-c2c3n(c(=O)n(CCCCN4CCCC(c5c[nH]c6ccc(OC)cc56)C4)c2=O)CCCC3)cc1 (centres undefined)
Ki [3]: 1190 nM
half-life at 1 µM [2]: 7 min
Ki [1]: 52 nM
Ki [4]: 452 nM
Ki [5]: 546 nM
Ki [6]: 1800 nM

Structure (SMILES): O=c1c(-c2ccccc2F)c2n(c(=O)n1CCCCN1CCCC(c3c[nH]c4ccc(F)cc34)C1)CCCC2 (centres undefined)
Ki [1]: 28 nM

Structure (SMILES): COc1ccc2[nH]cc(C3CCCN(CCCCn4c(=O)c(-c5ccc(C)cc5)c5n(c4=O)CCCC5)C3)c2c1 (centres undefined)
Ki [1]: 321 nM

Structure (SMILES): Cc1ccccc1-c1c2n(c(=O)n(CCCCN3CCCC(c4c[nH]c5ccc(F)cc45)C3)c1=O)CCCC2 (centres undefined)
Ki [1]: 142 nM

Structure (SMILES): COc1ccc2[nH]cc(C3CCCN(CCCCn4c(=O)c(-c5ccccc5)c5n(c4=O)CCCC5)C3)c2c1 (centres undefined)
Ki [1]: 102 nM

Structure (SMILES): COc1ccc(-c2c3n(c(=O)n(CCCCN4CCCC(c5c[nH]c6ccc(F)cc56)C4)c2=O)CCCC3)cc1 (centres undefined)
Ki [1]: 42 nM

Structure (SMILES): COc1ccc2[nH]cc(C3CCCN(CCCCn4c(=O)c(-c5ccccc5C)c5n(c4=O)CCCC5)C3)c2c1 (centres undefined)
Ki [1]: 66 nM

Structure (SMILES): COc1ccc2[nH]cc(C3CCCN(CCCCn4c(=O)c(-c5ccccc5F)c5n(c4=O)CCCC5)C3)c2c1 (centres undefined)
Ki [1]: 236 nM

Structure (SMILES): COc1ccccc1-c1c2n(c(=O)n(CCCCN3CCCC(c4c[nH]c5ccccc45)C3)c1=O)CCCC2 (centres undefined)
Ki [1]: 25 nM

Structure (SMILES): O=c1c(-c2ccccc2Cl)c2n(c(=O)n1CCCCN1CCCC(c3c[nH]c4ccc(F)cc34)C1)CCCC2 (centres undefined)
Ki [1]: 47 nM

Structure (SMILES): COc1ccccc1-c1c2n(c(=O)n(CCCCN3CCCC(c4c[nH]c5ccc(F)cc45)C3)c1=O)CCCC2 (centres undefined)
Ki [1]: 40 nM

Structure (SMILES): Cc1ccccc1-c1c2n(c(=O)n(CCCCN3CCCC(c4c[nH]c5ccccc45)C3)c1=O)CCCC2 (centres undefined)
Ki [1]: 62 nM

Structure (SMILES): O=c1c(-c2ccc(F)cc2)c2n(c(=O)n1CCCCN1CCCC(c3c[nH]c4ccc(F)cc34)C1)CCCC2 (centres undefined)
Ki [3]: 484 nM
deltaT [7]: 0.8 °C
deltaT [8]: 0.8 °C
deltaT [9]: 0.6 °C
deltaT [10]: 0.9 °C
deltaT [11]: -0.6 °C
deltaT [12]: 0.1 °C
deltaT [13]: 0.1 °C
deltaT [14]: 0 °C
deltaT [15]: -0.1 °C
deltaT [16]: 0.2 °C
deltaT [17]: -0.3 °C
deltaT [18]: -0.4 °C
half-life at 1 µM [2]: 6.2 min
Activity [19]: Active
Activity [20]: Non-Toxic
Ki [1]: 31 nM
Ki [4]: 728 nM
Ki [5]: 1110 nM
Ki [6]: 1050 nM

Structure (SMILES): COc1ccc2[nH]cc(C3CCCN(CCCCn4c(=O)c(-c5ccccc5OC)c5n(c4=O)CCCC5)C3)c2c1 (centres undefined)
Ki [1]: 239 nM

Structure (SMILES): COc1ccc2[nH]cc(C3CCCN(CCCCn4c(=O)c(-c5ccc(F)cc5)c5n(c4=O)CCCC5)C3)c2c1 (centres undefined)
Ki [1]: 76 nM

Structure (SMILES): Cc1ccc(-c2c3n(c(=O)n(CCCCN4CCCC(c5c[nH]c6ccc(F)cc56)C4)c2=O)CCCC3)cc1 (centres undefined)
Ki [1]: 233 nM

Structure (SMILES): COc1ccc2[nH]cc(C3CCCN(CCCCn4c(=O)c(-c5ccccc5Cl)c5n(c4=O)CCCC5)C3)c2c1 (centres undefined)
Ki [1]: 50 nM

Second part, led by results:

Ki [1]: 50 nM
Structure (SMILES): Cc1ccc(-c2c3n(c(=O)n(CCCCN4CCCC(c5c[nH]c6ccccc56)C4)c2=O)CCCC3)cc1 (centres undefined)

Ki [1]: 52 nM
Structure (SMILES): COc1ccc(-c2c3n(c(=O)n(CCCCN4CCCC(c5c[nH]c6ccccc56)C4)c2=O)CCCC3)cc1 (centres undefined)

Ki [1]: 259 nM
Structure (SMILES): O=c1c(-c2ccc(Cl)cc2)c2n(c(=O)n1CCCCN1CCCC(c3c[nH]c4ccc(F)cc34)C1)CCCC2 (centres undefined)

Ki [3]: 1490 nM
Ki [1]: 30 nM
Ki [4]: 1320 nM
Ki [5]: 1380 nM
Ki [6]: 1650 nM
Structure (SMILES): O=c1c(-c2ccc(Cl)cc2)c2n(c(=O)n1CCCCN1CCCC(c3c[nH]c4ccccc34)C1)CCCC2 (centres undefined)
deltaT [7]: 0.1 °C
deltaT [8]: 0.3 °C
deltaT [9]: -0.1 °C
deltaT [10]: 0.2 °C
deltaT [11]: 0.3 °C
deltaT [12]: 0.7 °C
deltaT [13]: 0.5 °C
deltaT [14]: 0.3 °C
deltaT [15]: -1.1 °C
deltaT [16]: -1.1 °C
deltaT [17]: -1.2 °C
deltaT [18]: -1.2 °C

Ki [1]: 105 nM
Structure (SMILES): O=c1c(-c2ccccc2)c2n(c(=O)n1CCCCN1CCCC(c3c[nH]c4ccc(F)cc34)C1)CCCC2 (centres undefined)

Ki [3]: 725 nM
half-life at 1 µM [2]: 11.1 min
Ki [1]: 27 nM
Ki [4]: 1150 nM
Ki [5]: 1090 nM
Ki [6]: 2350 nM
Structure (SMILES): O=c1c(-c2ccccc2)c2n(c(=O)n1CCCCN1CCCC(c3c[nH]c4ccccc34)C1)CCCC2 (centres undefined)
deltaT [7]: 0.2 °C
deltaT [8]: 0.3 °C
deltaT [9]: 0.3 °C
deltaT [10]: 0.8 °C
deltaT [11]: -0.6 °C
deltaT [12]: 0 °C
deltaT [13]: -0.2 °C
deltaT [14]: -0.1 °C
deltaT [15]: -1.2 °C
deltaT [16]: -1.1 °C
deltaT [17]: -0.9 °C
deltaT [18]: 0.7 °C

Ki [3]: 609 nM
half-life at 1 µM [2]: 7 min
Ki [1]: 8 nM
Ki [4]: 1030 nM
Ki [5]: 1360 nM
Ki [6]: 896 nM
Structure (SMILES): O=c1c(-c2ccccc2Cl)c2n(c(=O)n1CCCCN1CCCC(c3c[nH]c4ccccc34)C1)CCCC2 (centres undefined)
deltaT [7]: 0 °C
deltaT [8]: 0.3 °C
deltaT [9]: 0.9 °C
deltaT [10]: 0.8 °C
deltaT [11]: -0.8 °C
deltaT [12]: 0.2 °C
deltaT [13]: 0.3 °C
deltaT [14]: 0.2 °C

Ki [3]: 1280 nM
half-life at 1 µM [2]: 7 min
Ki [1]: 13 nM
Ki [4]: 1650 nM
Ki [5]: 1710 nM
Ki [6]: 1980 nM
Structure (SMILES): O=c1c(-c2ccc(F)cc2)c2n(c(=O)n1CCCCN1CCCC(c3c[nH]c4ccccc34)C1)CCCC2 (centres undefined)
deltaT [7]: 0.3 °C
deltaT [8]: 0.3 °C
deltaT [9]: 0.3 °C
deltaT [10]: 0.5 °C
deltaT [11]: 0.1 °C
deltaT [12]: 0.3 °C
deltaT [13]: -0.1 °C
deltaT [14]: 0.1 °C
deltaT [15]: -0.2 °C
deltaT [16]: -0.2 °C
deltaT [17]: -0.3 °C
deltaT [18]: -0.9 °C
Activity [21]: Non-Toxic
Activity [22]: Active

Ki [1]: 23 nM
Structure (SMILES): COc1ccc2[nH]cc(C3CCCN(CCCCn4c(=O)c(-c5ccc(Cl)cc5)c5n(c4=O)CCCC5)C3)c2c1 (centres undefined)

Ki [3]: 325 nM
half-life at 1 µM [2]: 12 min
Ki [1]: 15 nM
Ki [4]: 1030 nM
Ki [5]: 2430 nM
Ki [6]: > 10000 nM
Structure (SMILES): O=c1c(-c2ccccc2F)c2n(c(=O)n1CCCCN1CCCC(c3c[nH]c4ccccc34)C1)CCCC2 (centres undefined)
deltaT [7]: 0.2 °C
deltaT [8]: 0.3 °C
deltaT [9]: 0.7 °C
deltaT [10]: 1 °C
deltaT [11]: -0.8 °C
deltaT [12]: 0 °C
deltaT [13]: 0.6 °C
deltaT [14]: 0.7 °C
deltaT [15]: -1.6 °C
deltaT [16]: -1.8 °C
deltaT [17]: -1.9 °C
deltaT [18]: -1.8 °C
